Structures are written as SMILES.

The target in test [1] is T1, 5-hydroxytryptamine receptor 2A (Rattus norvegicus, UniProt P14842).
Test [2] has as its system Mus musculus. In words: In vivo antipsychotic activity measured by the inhibition of apomorphine-induced climbing behavior in mice after 30 min po administration. The test is classed as functional. The following applies: 0.5 h.
Test [3] has as its system Rattus norvegicus. As to the kind of experiment: In vivo antipsychotic activity measured by the induction of catalepsy in rats after po administration. In kind it is functional.
In test [4] the test system is Rattus norvegicus. As to the kind of experiment: In vivo antipsychotic activity measured by the induction of catalepsy in rats after po administration. In kind it is functional.
The target in test [5] is T2, 5-hydroxytryptamine receptor 1A (Rattus norvegicus, UniProt P19327).
T2 sequence (P19327 whole entry): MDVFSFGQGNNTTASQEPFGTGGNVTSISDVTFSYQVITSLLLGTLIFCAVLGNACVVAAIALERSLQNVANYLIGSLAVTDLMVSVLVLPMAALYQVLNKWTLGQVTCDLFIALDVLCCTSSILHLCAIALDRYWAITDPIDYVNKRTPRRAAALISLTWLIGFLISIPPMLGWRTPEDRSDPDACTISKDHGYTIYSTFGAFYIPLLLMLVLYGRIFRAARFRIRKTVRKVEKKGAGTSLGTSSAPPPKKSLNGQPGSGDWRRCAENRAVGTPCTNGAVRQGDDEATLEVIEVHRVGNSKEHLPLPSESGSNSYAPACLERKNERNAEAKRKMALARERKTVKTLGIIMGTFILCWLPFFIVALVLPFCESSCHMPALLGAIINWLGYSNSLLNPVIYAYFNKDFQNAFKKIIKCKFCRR
As to the kind of experiment: Binding affinity measured at the 5-hydroxytryptamine 1A receptor by the inhibition of [3H]8-OH-DPAT binding to rat cortex using unlabeled buspirone for nonspecific binding.

Test [6] deals with T3, Adrenergic receptor alpha-2 (Rattus norvegicus, UniProt P22086+P19328+P22909).
T3 sequence (P22086 whole entry): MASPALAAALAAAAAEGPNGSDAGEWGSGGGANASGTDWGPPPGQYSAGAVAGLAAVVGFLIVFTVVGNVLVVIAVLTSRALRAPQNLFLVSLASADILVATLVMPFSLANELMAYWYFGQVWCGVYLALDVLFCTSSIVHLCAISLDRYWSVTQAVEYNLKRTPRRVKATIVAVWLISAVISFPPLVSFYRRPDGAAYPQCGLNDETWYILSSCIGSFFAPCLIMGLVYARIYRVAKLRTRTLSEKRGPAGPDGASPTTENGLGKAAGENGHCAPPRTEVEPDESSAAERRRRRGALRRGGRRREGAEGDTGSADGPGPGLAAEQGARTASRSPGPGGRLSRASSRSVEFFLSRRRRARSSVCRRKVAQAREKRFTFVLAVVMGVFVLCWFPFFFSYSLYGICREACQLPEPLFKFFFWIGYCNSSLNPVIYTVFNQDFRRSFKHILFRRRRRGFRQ
T3 sequence (P19328 whole entry): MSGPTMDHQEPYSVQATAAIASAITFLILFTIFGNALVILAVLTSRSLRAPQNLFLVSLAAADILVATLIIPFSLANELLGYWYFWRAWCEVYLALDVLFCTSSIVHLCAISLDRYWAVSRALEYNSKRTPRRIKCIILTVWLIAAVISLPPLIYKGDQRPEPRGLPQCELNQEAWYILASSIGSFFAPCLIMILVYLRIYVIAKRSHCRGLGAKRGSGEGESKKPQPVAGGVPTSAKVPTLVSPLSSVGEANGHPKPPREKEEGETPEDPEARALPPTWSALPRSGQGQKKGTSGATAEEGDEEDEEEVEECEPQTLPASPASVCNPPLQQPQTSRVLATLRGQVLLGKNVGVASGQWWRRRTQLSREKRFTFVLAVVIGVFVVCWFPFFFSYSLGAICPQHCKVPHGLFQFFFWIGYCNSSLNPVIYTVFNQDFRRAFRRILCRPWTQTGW
T3 sequence (P22909 whole entry): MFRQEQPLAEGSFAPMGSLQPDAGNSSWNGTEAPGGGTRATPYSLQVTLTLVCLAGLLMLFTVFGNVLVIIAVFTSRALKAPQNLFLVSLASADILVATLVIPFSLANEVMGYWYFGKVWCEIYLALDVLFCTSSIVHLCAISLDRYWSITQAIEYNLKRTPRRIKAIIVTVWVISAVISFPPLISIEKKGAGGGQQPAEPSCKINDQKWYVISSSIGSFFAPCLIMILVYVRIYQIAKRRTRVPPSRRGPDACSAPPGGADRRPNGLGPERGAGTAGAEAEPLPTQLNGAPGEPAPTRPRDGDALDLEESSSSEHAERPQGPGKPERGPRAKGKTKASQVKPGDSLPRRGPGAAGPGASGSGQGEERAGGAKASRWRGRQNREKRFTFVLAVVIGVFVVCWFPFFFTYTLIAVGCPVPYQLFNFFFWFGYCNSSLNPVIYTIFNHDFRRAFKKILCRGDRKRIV
As to the kind of experiment: Binding affinity measured at the Alpha-2 adrenergic receptor by the inhibition of [3H]clonidine binding to rat cortex using unlabeled NAbitartrate for nonspecific binding.

Test [7] has as its target Adrenergic receptor beta (Rattus norvegicus, UniProt P18090+P10608+P26255). As to the kind of experiment: Binding affinity measured at the Beta adrenergic receptor by the inhibition of [3H]DHA binding to rat cortex using unlabeled isoprenalin for nonspecific binding.
Test [8] concerns the target D(3) dopamine receptor (Homo sapiens, UniProt P35462). As to the kind of experiment: Binding affinity measured at the Dopamine receptor D3 by the inhibition of [3H]YM-09151-2 binding to human recombinant CCL 1.3 cells using unlabeled 7-OH-DPAT for nonspecific binding.
For test [9], the species on record is Mus musculus. In words: Inhibition of grooming-induced by SKF 38393 in mice. The test is classed as functional.
Test [10] is filed under the species Mus musculus. In words: Inhibition of p-chloroamphetamine-induced hyperactivity in mice. In kind it is functional.
Test [11] addresses Muscarinic acetylcholine receptor. As to the kind of experiment: Binding affinity measured at the Muscarinic acetylcholine receptor by the inhibition of [3H]-pyrilamine binding to guinea pig cerebellum using unlabeled Triprolidine for nonspecific binding. The test is classed as tissue-based, Cavia porcellus.
For test [12], the species on record is Rattus norvegicus. As to the kind of experiment: Inhibition of apomorphine-induced stereotypy in rats. In kind it is functional.
For test [13], the species on record is Mus musculus. As to the kind of experiment: Inhibition of head twitches-induced by 2,5-dimethoxy-4-iodoamphetamine in mice. In kind it is functional.
In test [14] the target is T1, 5-hydroxytryptamine receptor 2A. This is another data set of the same source.
Description: Binding affinity measured at the 5-hydroxytryptamine 2A receptor by the inhibition of [3H]ketanserin binding to rat cortex using unlabeled mianserin for nonspecific binding.
The target of test [15] is T4, Alpha-1A adrenergic receptor (Rattus norvegicus, UniProt P43140).
T4 sequence (P43140 whole entry): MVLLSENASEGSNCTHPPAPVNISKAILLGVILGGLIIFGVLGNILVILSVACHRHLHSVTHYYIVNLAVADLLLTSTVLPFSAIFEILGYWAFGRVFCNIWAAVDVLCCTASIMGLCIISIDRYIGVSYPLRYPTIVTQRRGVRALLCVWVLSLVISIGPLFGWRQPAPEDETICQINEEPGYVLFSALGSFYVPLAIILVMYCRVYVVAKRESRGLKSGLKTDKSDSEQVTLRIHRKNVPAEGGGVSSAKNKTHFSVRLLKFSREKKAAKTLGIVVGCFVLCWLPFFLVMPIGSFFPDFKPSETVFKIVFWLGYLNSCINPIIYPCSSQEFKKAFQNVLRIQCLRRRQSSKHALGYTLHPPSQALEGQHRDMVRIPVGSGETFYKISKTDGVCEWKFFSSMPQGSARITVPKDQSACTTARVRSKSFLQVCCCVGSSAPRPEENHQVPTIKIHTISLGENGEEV
Description: Binding affinity measured at the Alpha-1A adrenergic receptor by the inhibition of [3H]prazosin binding to rat cortex using unlabeled WB-4101 for nonspecific binding.

Test [16] deals with T5, D(4) dopamine receptor (Homo sapiens, UniProt P21917).
T5 sequence (P21917 whole entry): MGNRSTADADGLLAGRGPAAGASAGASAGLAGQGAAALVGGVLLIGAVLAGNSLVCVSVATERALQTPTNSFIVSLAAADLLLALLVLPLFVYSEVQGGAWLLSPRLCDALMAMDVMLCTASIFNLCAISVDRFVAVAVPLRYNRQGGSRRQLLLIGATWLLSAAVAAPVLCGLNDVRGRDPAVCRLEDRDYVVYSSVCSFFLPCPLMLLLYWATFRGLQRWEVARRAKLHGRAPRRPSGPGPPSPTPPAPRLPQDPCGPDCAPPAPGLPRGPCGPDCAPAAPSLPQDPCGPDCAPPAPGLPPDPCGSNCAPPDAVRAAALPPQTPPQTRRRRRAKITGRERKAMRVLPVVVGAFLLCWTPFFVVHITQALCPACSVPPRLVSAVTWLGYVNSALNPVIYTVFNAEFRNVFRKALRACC
As to the kind of experiment: biochemical.

The target of test [17] is D(1A) dopamine receptor (Rattus norvegicus, UniProt P18901). In words: biochemical.
D(1A) dopamine receptor, sequence (P18901 whole entry): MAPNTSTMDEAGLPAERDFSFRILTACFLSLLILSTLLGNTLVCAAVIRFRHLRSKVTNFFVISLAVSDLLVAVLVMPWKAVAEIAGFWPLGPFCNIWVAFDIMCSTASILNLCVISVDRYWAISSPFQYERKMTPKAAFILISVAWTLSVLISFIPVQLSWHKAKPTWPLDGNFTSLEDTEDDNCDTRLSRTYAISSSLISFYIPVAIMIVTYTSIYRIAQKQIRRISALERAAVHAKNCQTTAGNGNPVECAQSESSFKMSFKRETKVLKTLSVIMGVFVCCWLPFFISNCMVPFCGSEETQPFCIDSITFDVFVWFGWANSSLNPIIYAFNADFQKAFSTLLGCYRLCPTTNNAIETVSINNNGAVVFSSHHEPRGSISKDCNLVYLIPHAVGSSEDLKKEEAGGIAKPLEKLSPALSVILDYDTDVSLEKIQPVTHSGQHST
Description: Binding affinity measured at the Dopamine receptor D1 by the inhibition of [3H]SCH-23390 binding to rat striatum using unlabeled apomorphine for nonspecific binding.
Test [18] concerns the target Beta-1 adrenergic receptor (Rattus norvegicus, UniProt P18090). As to the kind of experiment: Binding affinity measured at the Beta-1 adrenergic receptor by the inhibition of [3H]DHA binding to rat cortex using unlabeled isoprenalin for nonspecific binding.

T1 sequence (P14842 whole entry): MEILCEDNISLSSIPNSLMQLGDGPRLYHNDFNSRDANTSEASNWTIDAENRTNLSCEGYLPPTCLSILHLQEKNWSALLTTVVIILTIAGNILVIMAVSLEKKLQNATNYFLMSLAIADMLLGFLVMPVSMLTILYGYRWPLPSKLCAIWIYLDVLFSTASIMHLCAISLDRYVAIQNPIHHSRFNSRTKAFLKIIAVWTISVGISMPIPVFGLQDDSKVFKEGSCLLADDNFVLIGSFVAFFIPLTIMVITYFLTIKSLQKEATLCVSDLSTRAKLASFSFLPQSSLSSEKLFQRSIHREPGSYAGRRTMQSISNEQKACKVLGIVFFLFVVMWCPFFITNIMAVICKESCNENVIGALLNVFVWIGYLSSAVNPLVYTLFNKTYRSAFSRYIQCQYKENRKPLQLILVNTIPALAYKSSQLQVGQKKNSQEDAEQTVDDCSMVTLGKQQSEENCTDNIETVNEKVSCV
Beta-1 adrenergic receptor, sequence (P18090 whole entry): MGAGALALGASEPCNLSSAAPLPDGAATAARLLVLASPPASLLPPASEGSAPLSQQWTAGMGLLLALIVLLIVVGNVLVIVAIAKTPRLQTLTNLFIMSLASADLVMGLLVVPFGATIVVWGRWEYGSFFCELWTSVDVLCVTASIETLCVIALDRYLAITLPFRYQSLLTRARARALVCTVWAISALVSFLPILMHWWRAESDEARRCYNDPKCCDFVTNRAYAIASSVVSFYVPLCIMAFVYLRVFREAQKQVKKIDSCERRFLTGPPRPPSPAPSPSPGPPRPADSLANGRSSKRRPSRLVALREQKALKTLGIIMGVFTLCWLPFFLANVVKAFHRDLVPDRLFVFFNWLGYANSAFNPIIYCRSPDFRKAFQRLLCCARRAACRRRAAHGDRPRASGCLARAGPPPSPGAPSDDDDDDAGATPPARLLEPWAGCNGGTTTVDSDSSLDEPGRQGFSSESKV
D(3) dopamine receptor, sequence (P35462 whole entry): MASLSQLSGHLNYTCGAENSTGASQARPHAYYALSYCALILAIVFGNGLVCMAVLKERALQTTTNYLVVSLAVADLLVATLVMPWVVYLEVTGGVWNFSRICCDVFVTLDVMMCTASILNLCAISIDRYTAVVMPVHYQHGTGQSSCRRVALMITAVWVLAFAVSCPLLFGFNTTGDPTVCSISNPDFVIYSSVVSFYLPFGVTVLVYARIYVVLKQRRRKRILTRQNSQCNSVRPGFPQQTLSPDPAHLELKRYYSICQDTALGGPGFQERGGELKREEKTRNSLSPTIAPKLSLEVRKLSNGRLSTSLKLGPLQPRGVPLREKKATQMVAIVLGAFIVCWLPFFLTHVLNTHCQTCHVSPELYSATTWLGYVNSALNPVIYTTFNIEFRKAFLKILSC

For the compound `Cc1coc2cc(OCCCN3CCC(C(=O)c4ccc(F)cc4)CC3)ccc2c1=O`, in test [1], the IC50 (commonly the concentration that inhibits the measured activity by half) came to 0.0253 µM.
In [1], `O=C(c1ccc(F)cc1)C1CCN(CCCOc2ccc3c(=O)c(CO)coc3c2)CC1` returned an IC50 of 0.0329 µM. Besides, the results for the median effective dose (ED50) in test [2] and in test [3] were 2.02 mg/kg and 13 mg/kg, respectively.
With `O=Cc1coc2cc(OCCCN3CCC(c4noc5cc(F)ccc45)CC3)ccc2c1=O`, the ED50 (as a rule, the midpoint of the dose-response relation) came out at 3.32 mg/kg in test [2] and 15.9 mg/kg in [4].
`COCc1coc2cc(OCCCN3CCC(c4noc5cc(F)ccc45)CC3)ccc2c1=O` came in with an IC50 in test [1] of 0.0014 µM. The ED50 in test [2] was 0.27 mg/kg; in test [3] it was 6.88 mg/kg.
With `Cc1coc2cc(OCCCN3CCC(c4noc5cc(F)ccc45)CC3)ccc2c1=O`, the figures for the ED50 in test [2] and in test [3] were 0.4 mg/kg and 2.85 mg/kg, respectively.
Turning to `O=c1cc(CO)oc2cc(OCCCN3CCC(c4noc5cc(F)ccc45)CC3)ccc12`, in test [1], inhibition was half-maximal at 0.0072 µM (IC50). Also, the ED50 in [2] is 5.88 mg/kg; in [3], greater than 100 mg/kg.
In the case of `O=C(O)c1coc2cc(OCCCN3CCC(c4noc5cc(F)ccc45)CC3)ccc2c1=O`, the ED50 in test [2] is greater than 10 mg/kg; in test [3], greater than 50 mg/kg.
The compound `O=c1ccoc2cc(OCCCN3CCC(c4noc5cc(F)ccc45)CC3)ccc12` returned an IC50 in test [1] of 0.0086 µM. The values for the ED50 in [2] and in test [3] were 1.08 mg/kg and 12.6 mg/kg, respectively.
`O=c1c(CO)coc2cc(OCCCN3CCC(c4noc5cc(F)ccc45)CC3)ccc12` [ABAPERIDONE]: the Ki – broadly, the dissociation constant of the complex between target and ligand, obtained from inhibition or displacement – in [5] worked out at 0.094 µM; in test [6], 0.169 µM; in [7], 2.99 µM; in [8], 0.0054 µM; in test [11] it was 1.13 µM; in test [14] it was 0.0019 µM. For the same compound, the Ki in test [15] was 0.0024 µM; in [16] it was 0.179 µM; in test [17], 0.239 µM. This compound displayed an IC50 in test [1] of 0.0062 µM. Besides, the ED50 in test [2] is 0.24 mg/kg; in test [9], 0.31 mg/kg; in test [10] it was 0.16 mg/kg; in test [3] it was 8.48 mg/kg; in [12], 18.6 mg/kg; in test [13], 0.08 mg/kg.
In the case of `CN1CCN(C2=Nc3cc(Cl)ccc3Nc3ccccc32)CC1` [CLOZAPINE], the ED50 in [2] is 15.4 mg/kg; in test [9] it was 0.33 mg/kg; in test [10] it was 6.41 mg/kg; in test [3], greater than 100 mg/kg; in test [12], greater than 100 mg/kg; in test [13], 0.85 mg/kg.
Regarding `O=C(CCCN1CCC(O)(c2ccc(Cl)cc2)CC1)c1ccc(F)cc1` [HALOPERIDOL], the ED50 was 0.31 mg/kg in test [2]; 0.28 mg/kg in test [9]; 0.3 mg/kg in test [10]; 2 mg/kg in test [3]; 0.56 mg/kg in test [13].
As for `Cc1nc2n(c(=O)c1CCN1CCC(c3noc4cc(F)ccc34)CC1)CCCC2` [RISPERIDONE], in test [18], the Ki was 22 µM. The ED50 is 0.29 mg/kg in test [2]; 0.41 mg/kg in test [9]; 0.2 mg/kg in test [10]; 5 mg/kg in test [3]; 9.7 mg/kg in test [12].
